Experimental data as given in patent US20170100320A1, “COMPOSITION FOR EXTERNAL USE SKIN PREPARATION, CONTAINING THIOREDOXIN” (Amorepacific Corporation, priority 2012, published 2017).

Assays:
Assay type in all cases: cell-based
[1] = biological target: T1, 5α-reductase in HEK293-5αR2 cells (Homo sapiens, UniProt P31213); assay: Inhibition of 5α-reductase activity ([14C]testosterone to [14C]dihydrotestosterone conversion); settings: 2 hours incubation at 37° C.; for Conversion (%): testosterone to DHT
T1 construct: 3xFLAG; expressed in transfected cells; host or cells: HEK293 (Human Embryonic Kidney 293)
T1 sequence (P31213 1-254): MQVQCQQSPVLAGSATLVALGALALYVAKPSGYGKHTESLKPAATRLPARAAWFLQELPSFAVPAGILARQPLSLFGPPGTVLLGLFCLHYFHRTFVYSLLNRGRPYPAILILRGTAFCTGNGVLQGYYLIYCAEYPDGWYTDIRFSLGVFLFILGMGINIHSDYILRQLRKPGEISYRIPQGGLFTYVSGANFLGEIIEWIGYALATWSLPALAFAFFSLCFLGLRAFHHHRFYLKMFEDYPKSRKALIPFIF
Experimental: In order to examine the effect of inhibiting 5α-reductase activity, the ratio of [^14C]testosterone-to-[^14C]dihydrotestosteron conversion in Human Embryonic Kidney 293(HEK293)-5αR2 cells was measured. HEK293 cells transfected with plasmid p3×FLAG-CMV™-5αR2 were added to a 24-well plate at a density of 2.5×10^5cells/well and cultured (Park et al., 2003, J. Dermatological Science. Vol. 31, pp. 91-98). The next day, the medium was replaced with a fresh medium containing an enzyme substrate and an inhibitor. As the substrate of the medium, 0.05 μCi [^14C]testosterone (Amersham Pharmacia Biotech, UK) was used.
In order to measure the degree of inhibition of 5α-reductase activity, thioredoxin was added to the cells which were then incubated in a 5% CO2 incubator at 37° C. for 2 hours. At the same time, a medium containing no thioredoxin was used as a negative, and a medium containing finasteride was used as a positive control. Next, the culture medium was collected, and steroid was extracted with 800 μl of ethyl acetate. The upper organic solvent layer was separated and dried, and the remaining material was dissolved in 50 μl of ethyl acetate and developed on silica plastic sheet kieselgel 60 F254 using ethyl acetate-hexane (1:1) as a developing solvent.
The plastic sample was dried in air, and the amount of isotopes was measured using a Vas system. Specifically, the dried plastic sheet together with an X-ray film was placed in a Vas cassette, and after 1 week, the amounts of the testosterone and dihydrotestosterone (DHT) isotopes were measured, and then the percent conversion and the percent inhibition were measured using the following equations 1 and 2, respectively.
Conversion (%)=radioactivity in the DHT region/total radioactivity×100
Inhibition (%)=(conversion of control−conversion of sample)/conversion of control×100

fibroblasts = assay: Stimulation of collagen biosynthesis (procollagen type (I) ELISA); settings: 24 hours; relative to control = 100%; TGF-beta 10 ng/ml
Experimental: The effect of thioredoxin of the present invention on the stimulation of collagen biosynthesis was measured in comparison with TGF-beta.
First, fibroblasts were seeded into a 24-well plate at a density of 10^5cells/well and cultured in serum-free DMEM medium for 24 hours to a confluence of about 90%. Then, the cells were treated with each of a solution of thioredoxin of the present invention and 10 ng/ml of TGF-beta dissolved in serum-free medium and incubated in a CO2 incubator for 24 hours. The supernatants of the cell cultures were collected and the amount of procollagen therein was measured using a procollagen type (I) ELISA kit. The values of collagen synthesis (%) in Table 8 are expressed as percentages relative to the control taken as 100%.

human keratinocytes = assay: Stimulation of keratinocyte differentiation (cornified envelope protein, absorbance 340 nm); settings: 5 days culture; thioredoxin 5 ppm; low-calcium negative control = 100
Experimental: In order to examine the effect of thioredoxin on the stimulation of differentiation of keratinocytes, the amount of cornified envelope (CE) protein produced during the differentiation of keratinocytes was measured by absorbance in the following manner.
Specifically, human keratinocytes, isolated from the […] of newborns and primarily cultured, were placed in a culture flask and attached to the bottom. Then, the cells were cultured with a medium containing 5 ppm of thioredoxin for 5 days until the cells reached to a confluence of about 70-80%. At the same time, a low calcium (0.03 mM)-treated group and a high calcium (1.2 mM)-treated group were used as a negative control group and a positive control group, respectively. Then, the cultured cells were harvested and washed with PBS (phosphate buffered saline). Then, the cells were sonicated in 1 ml of 10 mM Tris-HCl (pH 7.4) containing 2% SDS (sodium dodecyl sulfate) and 20 mM DTT (dithiothreitol), boiled and centrifuged. The precipitate was suspended in 1 ml of PBS, and the absorbance at 340 nm was measured. Separately, a portion of the solution following the sonication was taken, and the protein content thereof was measured as a reference for evaluating the degree of differentiation of the cells.

Compound | Conversion (%) [1] | Collagen synthesis (%) (fibroblasts) | Inhibition (%) ([1]; relative to conversion of control) | Degree (%) of differentiation of keratinocytes (human keratinocytes)
CC(C)(C)NC(=O)[C@H]1CC[C@H]2[C@@H]3CC[C@H]4NC(=O)C=C[C@]4(C)[C@H]3CC[C@]12C [Positive control, finasteride, reference compound] | 27.6% |  |  | 
TGF-β [reference compound] |  | 183.5% |  | 
Thioredoxin | 15.9% | 196.2% | 60.8% | 295%
